Laboratory results from patent publication US20080153896A1, “Polymorphic Forms of an HMG-CoA Reductase Inhibitor and Uses Thereof” (priority 2006, published 2008).

Test: Stability (integrity) testing of amorphous and polymorphic form under storage conditions, RP-HPLC
Type: physicochemical
Set-up: Impurity RRT 1.104 / Impurity RRT 1.698: unit not given beside the values
Procedure: The integrity of the different forms of the (3R, 5R)-7-[2-(4-fluorophenyl)-5-isopropyl-3-phenyl-4-[(4-hydroxymethylphenylamino)carbonyl]-pyrrol-1-yl]-3,5-dihydroxy-heptanoic acid, hemi calcium salt, was tested under different atmospheric conditions to determine the stability of the amorphous and polymorphic form of the drug in various storage environments. Reversed Phase-HPLC (RP-HPLC) was used to separate (3R, 5R)-7-[2-(4-fluorophenyl)-5-isopropyl-3-phenyl-4-[(4-hydroxymethylphenylamino)carbonyl]-pyrrol-1-yl]-3,5-dihydroxy-heptanoic acid, hemi calcium salt, from smaller molecules representing breakdown products as well as oxidized drug. The relative amount of the drug was reported as a percent of total absorption by UV. The total peak area of all UV absorption impurities was used to define total impurity of the drug. Impurities are defined by their relative retention time (RRT) compared to native drug. Samples were injected onto a C18 column using standard temperature, gradient and run-time conditions.
The results of this integrity testing for the amorphous form of (3R, 5R)-7-[2-(4-fluorophenyl)-5-isopropyl-3-phenyl-4-[(4-hydroxymethylphenylamino)carbonyl]-pyrrol-1-yl]-3,5-dihydroxy-heptanoic acid, hemi calcium salt, is shown in Table 5.
Three separate batches of polymorphic Form I of (3R, 5R)-7-[2-(4-fluorophenyl)-5-isopropyl-3-phenyl-4-[(4-hydroxymethylphenylamino)carbonyl]-pyrrol-1-yl]-3,5-dihydroxy-heptanoic acid, hemi calcium salt, were prepared and tested under the same atmospheric conditions described for the amorphous form.

[1] = 25° C./60% RH 3M, hemi calcium salt
[2] = 25° C./60% RH 9M, hemi calcium salt

With `CC(C)c1c(C(=O)Nc2ccc(CO)cc2)c(-c2ccccc2)c(-c2ccc(F)cc2)n1CC[C@@H](O)C[C@@H](O)CC(=O)[O-].CC(C)c1c(C(=O)Nc2ccc(CO)cc2)c(-c2ccccc2)c(-c2ccc(F)cc2)n1CC[C@@H](O)C[C@@H](O)CC(=O)[O-].[Ca+2]` [PP00105, (3R, 5R)-7-[2-(4-fluorophenyl)-5-isopropyl-3-phenyl-4-[(4-hydroxymethylphenylamino)carbonyl]-pyrrol-1-yl]-3,5-dihydroxy-heptanoic acid, hemi calcium salt] the Description (5° C. 1M) was “White”, the “Impurity RRT 1.096” value (5° C. 1M) was 0.248 and the “Impurity RRT 1.183” value (5° C. 1M) was 0.051. For the same molecule, the “Impurity RRT 1.439” value (5° C. 1M) was 0.17, the “Impurity RRT 1.596” value (5° C. 1M) was 0.086 and the “Impurity RRT 1.698” value (5° C. 1M) was 0.068. The Assay (5° C. 1M, hemi calcium salt) was 98.36 % W/W, the “Highest Impurity” value (5° C. 1M, hemi calcium salt) was 0.459 and the “Impurity RRT 0.935” value (5° C. 1M, hemi calcium salt) was 0.412. For the same molecule, the “Impurity RRT 1.045” value (5° C. 1M, hemi calcium salt) was 0.459, the “Impurity RRT 1.64” value (5° C. 1M, hemi calcium salt) was 0.063 and the “Total Impurity” value (5° C. 1M, hemi calcium salt) was 1.56. The Water (5° C. 1M, hemi calcium salt) was 4.45 % W/W, the Description (5° C. 2M) was “White” and the “Impurity RRT 1.096” value (5° C. 2M) was 0.233. For the same molecule, the “Impurity RRT 1.183” value (5° C. 2M) was 0.06, the “Impurity RRT 1.439” value (5° C. 2M) was 0.163 and the “Impurity RRT 1.596” value (5° C. 2M) was 0.079. The “Impurity RRT 1.698” value (5° C. 2M) was 0.07, the Assay (5° C. 2M, hemi calcium salt) was 98.24 % W/W and the “Highest Impurity” value (5° C. 2M, hemi calcium salt) was 0.443. The “Impurity RRT 0.935” value (5° C. 2M, hemi calcium salt) was 0.413, the “Impurity RRT 1.045” value (5° C. 2M, hemi calcium salt) was 0.443 and the “Impurity RRT 1.64” value (5° C. 2M, hemi calcium salt) was 0.06. For the same molecule, the “Total Impurity” value (5° C. 2M, hemi calcium salt) was 1.52, the Water (5° C. 2M, hemi calcium salt) was 4.31 % W/W and the Description (5° C. 3M) was “White”. For the same molecule, the “Impurity RRT 1.096” value (5° C. 3M) was 0.216, the “Impurity RRT 1.439” value (5° C. 3M) was 0.150 and the “Impurity RRT 1.596” value (5° C. 3M) was 0.068. The “Impurity RRT 1.698” value (5° C. 3M) was 0.068, the “Total Impurity” value (5° C. 3M) was 1.35 and the Assay (5° C. 3M, hemi calcium salt) was 98.19 % W/W. For the same molecule, the “Highest Impurity” value (5° C. 3M, hemi calcium salt) was 0.414, the “Impurity RRT 0.935” value (5° C. 3M, hemi calcium salt) was 0.376 and the “Impurity RRT 1.045” value (5° C. 3M, hemi calcium salt) was 0.414. The “Impurity RRT 1.64” value (5° C. 3M, hemi calcium salt) was 0.055, the Water (5° C. 3M, hemi calcium salt) was 3.90 % W/W and the Description (5° C. 4M) was “White”. The “Impurity RRT 0.138” value (5° C. 4M) was 0.228, the “Impurity RRT 1.096” value (5° C. 4M) was 0.205 and the “Impurity RRT 1.439” value (5° C. 4M) was 0.159. For the same molecule, the “Impurity RRT 1.596” value (5° C. 4M) was 0.060, the “Impurity RRT 1.698” value (5° C. 4M) was 0.052 and the Assay (5° C. 4M, hemi calcium salt) was 98.17 % W/W. For the same molecule, the “Highest Impurity” value (5° C. 4M, hemi calcium salt) was 0.427, the “Impurity RRT 0.935” value (5° C. 4M, hemi calcium salt) was 0.341 and the “Impurity RRT 1.045” value (5° C. 4M, hemi calcium salt) was 0.427. The “Impurity RRT 1.640” value (5° C. 4M, hemi calcium salt) was 0.051, the “Total Impurity” value (5° C. 4M, hemi calcium salt) was 1.523 and the Water (5° C. 4M, hemi calcium salt) was 5.08 % W/W. For the same molecule, the Description (5° C. 5M) was “White”, the “Impurity RRT 0.138” value (5° C. 5M) was 0.22 and the “Impurity RRT 1.096” value (5° C. 5M) was 0.236. For the same molecule, the “Impurity RRT 1.439” value (5° C. 5M) was 0.122, the “Impurity RRT 1.596” value (5° C. 5M) was 0.054 and the “Impurity RRT 1.698” value (5° C. 5M) was 0.065. For the same molecule, the Assay (5° C. 5M, hemi calcium salt) was 98.27 % W/W, the “Highest Impurity” value (5° C. 5M, hemi calcium salt) was 0.401 and the “Impurity RRT 0.935” value (5° C. 5M, hemi calcium salt) was 0.373. For the same molecule, the “Impurity RRT 1.045” value (5° C. 5M, hemi calcium salt) was 0.401, the “Impurity RRT 1.640” value (5° C. 5M, hemi calcium salt) was 0.047 and the “Total Impurity” value (5° C. 5M, hemi calcium salt) was 1.527. The Water (5° C. 5M, hemi calcium salt) was 4.67 % W/W, the Description (5° C. 6M) was “White” and the “Impurity RRT 0.138” value (5° C. 6M) was 0.238. For the same molecule, the “Impurity RRT 1.096” value (5° C. 6M) was 0.189, the “Impurity RRT 1.183” value (5° C. 6M) was 0.056 and the “Impurity RRT 1.439” value (5° C. 6M) was 0.146. For the same molecule, the “Impurity RRT 1.596” value (5° C. 6M) was 0.080, the “Impurity RRT 1.698” value (5° C. 6M) was 0.059 and the Water (5° C. 6M) was 5.04 % W/W. For the same molecule, the Assay (5° C. 6M, hemi calcium salt) was 98.61 % W/W, the “Highest Impurity” value (5° C. 6M, hemi calcium salt) was 0.438 and the “Impurity RRT 0.935” value (5° C. 6M, hemi calcium salt) was 0.373. For the same molecule, the “Impurity RRT 1.045” value (5° C. 6M, hemi calcium salt) was 0.438, the “Impurity RRT 1.640” value (5° C. 6M, hemi calcium salt) was 0.048 and the “Total Impurity” value (5° C. 6M, hemi calcium salt) was 1.627. The Description (5° C. 9M) was “White”, the “Impurity RRT 0.138” value (5° C. 9M) was 0.228 and the “Impurity RRT 1.096” value (5° C. 9M) was 0.205. For the same molecule, the “Impurity RRT 1.439” value (5° C. 9M) was 0.188, the “Impurity RRT 1.596” value (5° C. 9M) was 0.061 and the “Impurity RRT 1.698” value (5° C. 9M) was 0.082. For the same molecule, the Assay (5° C. 9M, hemi calcium salt) was 97.96 % W/W, the “Highest Impurity” value (5° C. 9M, hemi calcium salt) was 0.400 and the “Impurity RRT 0.935” value (5° C. 9M, hemi calcium salt) was 0.366. For the same molecule, the “Impurity RRT 1.045” value (5° C. 9M, hemi calcium salt) was 0.400, the “Impurity RRT 1.640” value (5° C. 9M, hemi calcium salt) was 0.056 and the “Total Impurity” value (5° C. 9M, hemi calcium salt) was 1.586. The Water (5° C. 9M, hemi calcium salt) was 4.64 % W/W, the Description (5° C. 12M) was “White” and the “Impurity RRT 0.138” value (5° C. 12M) was 0.259. The “Impurity RRT 1.096” value (5° C. 12M) was 0.208, the “Impurity RRT 1.183” value (5° C. 12M) was 0.033 and the “Impurity RRT 1.439” value (5° C. 12M) was 0.141. The “Impurity RRT 1.596” value (5° C. 12M) was 0.053, the “Impurity RRT 1.698” value (5° C. 12M) was 0.045 and the Assay (5° C. 12M, hemi calcium salt) was 98.27 % W/W. For the same molecule, the “Highest Impurity” value (5° C. 12M, hemi calcium salt) was 0.412, the “Impurity RRT 0.935” value (5° C. 12M, hemi calcium salt) was 0.392 and the “Impurity RRT 1.045” value (5° C. 12M, hemi calcium salt) was 0.412. For the same molecule, the “Impurity RRT 1.640” value (5° C. 12M, hemi calcium salt) was 0.050, the “Total Impurity” value (5° C. 12M, hemi calcium salt) was 1.593 and the Water (5° C. 12M, hemi calcium salt) was 5.03 % W/W. For the same molecule, the Description (25° C./60% RH 3M) was “White”, the “Impurity RRT 1.096” value (25° C./60% RH 3M) was 0.214 and the “Impurity RRT 1.439” value (25° C./60% RH 3M) was 0.158. For the same molecule, the “Impurity RRT 1.596” value (25° C./60% RH 3M) was 0.067, the “Impurity RRT 1.698” value (25° C./60% RH 3M) was 0.065 and the Assay [1] was 98.15 % W/W. The “Highest Impurity” value [1] was 0.427, the “Impurity RRT 0.935” value [1] was 0.383 and the “Impurity RRT 1.045” value [1] was 0.427. The “Impurity RRT 1.64” value [1] was 0.051, the “Total Impurity” value [1] was 1.37 and the Water [1] was 4.74 % W/W. The Assay (25° C./60% RH 6M) was 98.15 % W/W, the Description (25° C./60% RH 6M) was “White” and the “Highest Impurity” value (25° C./60% RH 6M) was 0.405. The “Impurity RRT 0.138” value (25° C./60% RH 6M) was 0.113, the “Impurity RRT 0.935” value (25° C./60% RH 6M) was 0.338 and the “Impurity RRT 1.045” value (25° C./60% RH 6M) was 0.405. For the same molecule, the “Impurity RRT 1.096” value (25° C./60% RH 6M) was 0.233, the “Impurity RRT 1.439” value (25° C./60% RH 6M) was 0.142 and the “Impurity RRT 1.596” value (25° C./60% RH 6M) was 0.066. For the same molecule, the “Impurity RRT 1.640” value (25° C./60% RH 6M) was 0.035, the “Impurity RRT 1.698” value (25° C./60% RH 6M) was 0.056 and the “Total Impurity” value (25° C./60% RH 6M) was 1.388. The Water (25° C./60% RH 6M) was 5.04 % W/W, the Description (25° C./60% RH 9M) was “White” and the “Impurity RRT 0.138” value (25° C./60% RH 9M) was 0.111. The “Impurity RRT 1.096” value (25° C./60% RH 9M) was 0.212, the “Impurity RRT 1.183” value (25° C./60% RH 9M) was 0.039 and the “Impurity RRT 1.439” value (25° C./60% RH 9M) was 0.155. For the same molecule, the “Impurity RRT 1.596” value (25° C./60% RH 9M) was 0.042, the “Impurity RRT 1.698” value (25° C./60% RH 9M) was 0.063 and the Assay [2] was 98.06 % W/W. The “Highest Impurity” value [2] was 0.389, the “Impurity RRT 0.935” value [2] was 0.375 and the “Impurity RRT 1.045” value [2] was 0.389. The “Impurity RRT 1.640” value [2] was 0.045, the “Total Impurity” value [2] was 1.431 and the Water [2] was 5.31 % W/W. For the same molecule, the Description (25° C./60% RH 12M) was “White”, the “Impurity RRT 0.138” value (25° C./60% RH 12M) was 0.199 and the “Impurity RRT 1.096” value (25° C./60% RH 12M) was 0.212. For the same molecule, the “Impurity RRT 1.183” value (25° C./60% RH 12M) was 0.036.
